Experimental data reported in article PMC4760274, “Elongation factor 2 kinase promotes cell survival by inhibiting protein synthesis without inducing autophagy” (Cellular Signalling, 2016).

Legend:
P-eEF2 in A549 cells = assay: eEF2 phosphorylation in A549 cells (western blot); type: cell-based, human; conditions: 16 h, AZD8055 1 μM
Experimental: (§1) After treatment, cells were lysed in ice-cold lysis buffer containing 1% (v/v) Triton X-100 (215680010, Acros Organics), 50 mM Tris (T6066-1KG, Sigma-Aldrich)–HCl (258148-2.5 L, Sigma-Aldrich) pH 7.4, 50 mM NaCl (BP358-212, Fisher Scientific), 0.2 mM EDTA (BP120-500, Fisher Scientific), 0.2 mM EGTA (E1102, Melford), 50 mM β-glycerophosphate (G9422, Sigma-Aldrich), 1 mM Na3VO4 (S6508, Sigma-Aldrich), 15 mM β-mercaptoethanol (125472500, Acros Organics) and 1 × protease inhibitor cocktail (5056489001, Roche). Lysates were spun at 16,000 × g for 10 min at 4 °C; the supernatants were kept and total protein concentration was quantified by Bradford assay following the manufacturer's instructions.
(§2) These procedures were performed as described previously.
Cells were then treated with 10 mM 2-deoxyglucose (2DG), rapamycin (100 nM), AZD8055 (1 μM) or MG132 (10 μM) for 16 h. Cells were then lysed and samples containing equal amounts of protein were analysed by western blot using the indicated antibodies. Values given below each lane show quantitation of the signal for LC3II, corrected for the actin signal from multiple experiments as in (A) expressed as LC3II normalized to actin, mean ± SEM (control cells without treatment = 1; n = 3). (B) A549 cells were cultured as in (A) to induce eEF2K knockdown. A549 cells were transiently transfected with the GST-BHMT construct and maintained in full media in the presence or absence of AZD8055 (1 μM) for 16 h, in the presence of leupeptin and E64d. GST-BHMT was precipitated with glutathione agarose from the whole cell extracts (bottom panel). Values given below show the quantitation of data from multiple experiments as in (B) expressed as the level of BHMT fragment normalized to the control without IPTG, mean ± SEM (control cells without treatment = 1; n = 3). Values given below each lane show quantitation of the signal for P-eEF2, corrected for the eEF2 signal from multiple experiments as in (B) expressed as P-eEF2 normalized to eEF2, mean ± SEM (control cells without treatment = 1; n = 3). (C) Cells were treated as described in Supplemental Fig. S3, visualized by confocal microscopy and the rate of autophagosome–lysosome fusion was measured according to green/red fluorescence ratio which reflect the percentage of unfused LC3. Scale bar = 20 μm. (D) Data quantification of C, data are presented as means ± SEM. (n = 5) ***P < 0.001, obtained by two-way ANOVA (Dunnett's test). (E) Untransfected A549 cells were treated with AZD8055 and BafA1 as described in A, cell lysates were collected at T0, 1 and 3 h for immunoblotting analysis. Values given below each lane show quantitation of the signal for LC3II, corrected for the LC3I signal from multiple experiments as in (E) expressed as LC3II normalized to LC3I, mean ± SEM (control cells without treatment = 1; n = 3).

LC3II in A549 cells = assay: LC3 modification in A549 cells (western blot); type: cell-based, human; conditions: untransfected A549; AZD8055 1 μM; Fig. 2E
Experimental: as §1, §2
Cells were then treated with 10 mM 2-deoxyglucose (2DG), rapamycin (100 nM), AZD8055 (1 μM) or MG132 (10 μM) for 16 h. Cells were then lysed and samples containing equal amounts of protein were analysed by western blot using the indicated antibodies. Values given below each lane show quantitation of the signal for LC3II, corrected for the actin signal from multiple experiments as in (A) expressed as LC3II normalized to actin, mean ± SEM (control cells without treatment = 1; n = 3). (B) A549 cells were cultured as in (A) to induce eEF2K knockdown. […] (D) Data quantification of C, data are presented as means ± SEM. […]

[1] = tested on: GST-BHMT cleavage (autophagic flux) in A549 cells; assay: GST-BHMT cleavage assay in A549 cells; type: cell-based, human; conditions: AZD8055 1 μM, 16 h, Fig. 2B
Experimental: Cells were lysed as above. […] The precipitated GST-BHMT was washed three times in the ice cold lysis buffer. Precipitates were then boiled in SDS-PAGE sample buffer, resolved by SDS-PAGE and analysed by western blotting using anti-GST antibody.
Cells were then treated with 10 mM 2-deoxyglucose (2DG), rapamycin (100 nM), AZD8055 (1 μM) or MG132 (10 μM) for 16 h. Cells were then lysed and samples containing equal amounts of protein were analysed by western blot using the indicated antibodies. […] (B) A549 cells were cultured as in (A) to induce eEF2K knockdown. A549 cells were transiently transfected with the GST-BHMT construct and maintained in full media in the presence or absence of AZD8055 (1 μM) for 16 h, in the presence of leupeptin and E64d. GST-BHMT was precipitated with glutathione agarose from the whole cell extracts (bottom panel). […] (E) Untransfected A549 cells were treated with AZD8055 and BafA1 as described in A, cell lysates were collected at T0, 1 and 3 h for immunoblotting analysis.

[2] = tested on: autolysosome formation in A549 cells; assay: autophagic flux analysis with mCherry-EGFP-LC3B in A549 cells; type: cell-based, human; conditions: AZD8055 1 μM, after release from BafA1, Fig. 2C, D
Experimental: A549 cells were transfected with a vector encoding mCherry-EGFP-LC3B, a tandem fluorescent-tagged LC3 (a kind gift from Dr. Terje Johansen, Biochemistry Department, Institute of Medical Biology, University of Tromsø, Norway), using lipofectamine 3000 (L3000001, Life technologies) following manufacturer's instructions. After treatment cells were washed twice in phosphate buffered saline (PBS, 18912-014, Gibco) and then fixed in 4% formaldehyde (F8775, Sigma-Aldrich) for 15 min. Fixed cells were washed thrice in PBS and permeabilized with 0.1% Triton-X 100 for 5 min. Cells were then again washed thrice in PBS and mounted in ProLong® Gold Antifade Mountant (P36935, Life technologies). Cells were visualized using Leica TCS SP8X/MP microscope equipped with a tuneable white light laser using a 40 × oil immersion objective lens (NA = 1.30) numerical aperture objective. Green/red fluorescence ratio (GFP loss upon autolysosome formation) was measured using the Leica Application Suite X (LAS X) software (version 1.1.0).
We also examined the progression of autolysosome formation using a tandem fluorescently-tagged LC3 (mCherry-EGFP-LC3B) which allowed us to determine autophagosome and lysosome fusion by evaluating loss of GFP fluorescence. Green (GFP) but not red (mCherry) fluorescence is quenched by protonation in response to acidified intra-lysosomal pH upon autolysosome fusion. […]

TSC2−/− MEFs = assay: caspase 3/7 assay in TSC2−/− MEFs; type: cell-based, mouse; conditions: TSC2−/− cells; rapamycin 20 nM; 48 h; Fig. 4B
Experimental: Caspase 3/7 assays (G8090, Promega) were performed according to the manufacturer's instructions. Briefly, 10,000 cells/well were plated overnight in a 96-well plate. Cells were treated as described in the figure legends for the indicated time period. To measure caspase 3/7 activity, 50 μL of caspase Glo 3/7 reagent was added to each well for 2 h with constant shaking at room temperature. Luminescence was measured using a BMG Labtech FLUOstar Optimi plate reader. Cytotoxicity was evaluated by CellTox Green® cytotoxicity assay (Promega). Briefly, 10,000 cells/well were plated overnight in a 96-well plate. Cells were treated as described in the figure legends for the indicated time period. Fluorescence was measured at 485–500 nmEx/520–530 nmEm using a BMG Labtech FLUOstar Optimi plate reader.
(§3) Fig. 4 eEF2K aids the survival of TSC2^−/− cells under glucose-starved conditions. […] Cells were then lysed and samples containing equal amounts of protein were analysed by western blot using the indicated antibodies. Values given below each lane show quantitation of the signal for LC3II, corrected for the actin signal or P-eEF2, corrected for the eEF2 signal from multiple experiments as in (A), mean ± SEM (control cells without treatment = 1; n = 3). (B) Cells were treated for 48 h as described in (A), except that they were processed for caspase 3/7 assay. […]

P-eEF2 in TSC2−/− MEFs = assay: eEF2 phosphorylation in TSC2−/− MEFs (western blot); type: cell-based, mouse; conditions: TSC2−/− cells starved of glucose; rapamycin 20 nM; Fig. 4A
Experimental: as §1, with “instructions. […]” for “instructions.”
as §3, with “[…] The − signs of the Glucose row are barely visible, so the condition given” for “(B) Cells were treated”, “each lane is my best reading. / Panel A: which number belongs to which lane or group (Con, JAN-613, JAN-384) is judged from horizontal position only.” for “48 h as described in (A), except that they were processed for caspase 3/7 assay.”

[3] = 2DG 10 mM, rapamycin 100 nM, MG132 10 μM, Fig. 2A

| caspase activity in control conditions (TSC2−/− MEFs) | Compound | phosphorylation of eEF2 (P-eEF2 in A549 cells; [3]) | phosphorylation of eEF2 (P-eEF2 in A549 cells; Fig. 2B) | LC3II/I ratio (LC3II in A549 cells) | cleavage of GST-BHMT [1] | green/red ratio (mCherry-EGFP-LC3B) in comparison to control cells [2] | adverse effect of glucose starvation (caspase 3/7 activity) countered (TSC2−/− MEFs) | eEF2 phosphorylation (P-eEF2 in TSC2−/− MEFs) |
| --- | --- | --- | --- | --- | --- | --- | --- | --- |
|  | COc1ccc(-c2ccc3c(N4CCOC[C@@H]4C)nc(N4CCOC[C@@H]4C)nc3n2)cc1CO [AZD8055] | induced the phosphorylation of eEF2 | marked increase | further increase | marked increase | remained low |  |  |
| decreased | CO[C@H]1C[C@@H]2CC[C@@H](C)[C@@](O)(O2)C(=O)C(=O)N2CCCC[C@H]2C(=O)O[C@H]([C@H](C)C[C@@H]2CC[C@@H](O)[C@H](OC)C2)CC(=O)[C@H](C)/C=C(\C)[C@@H](O)[C@@H](OC)C(=O)[C@H](C)C[C@H](C)/C=C/C=C/C=C/1C [rapamycin] | induced the phosphorylation of eEF2 |  |  |  |  | fully | large increase |
